Laboratory results taken from publication PMC3381009 (Journal of Medicinal Chemistry, 2012).

Experiments:
[1] = biological target: Mycobacterium tuberculosis glutamine synthetase (MtGS) (Mycobacterium tuberculosis, UniProt P9WN39); assay: MtGS inhibition screening and IC50 determination; assay type: biochemical; details: for inhibitory activity in the MtGS enzymatic assay (in words): inhibition screening at 25 μM; for fold increase of affinity/potency (IC50) compared to 7a: MtGS IC50 ratio vs 7a
Sequence of Mycobacterium tuberculosis glutamine synthetase (MtGS) (P9WN39 whole entry): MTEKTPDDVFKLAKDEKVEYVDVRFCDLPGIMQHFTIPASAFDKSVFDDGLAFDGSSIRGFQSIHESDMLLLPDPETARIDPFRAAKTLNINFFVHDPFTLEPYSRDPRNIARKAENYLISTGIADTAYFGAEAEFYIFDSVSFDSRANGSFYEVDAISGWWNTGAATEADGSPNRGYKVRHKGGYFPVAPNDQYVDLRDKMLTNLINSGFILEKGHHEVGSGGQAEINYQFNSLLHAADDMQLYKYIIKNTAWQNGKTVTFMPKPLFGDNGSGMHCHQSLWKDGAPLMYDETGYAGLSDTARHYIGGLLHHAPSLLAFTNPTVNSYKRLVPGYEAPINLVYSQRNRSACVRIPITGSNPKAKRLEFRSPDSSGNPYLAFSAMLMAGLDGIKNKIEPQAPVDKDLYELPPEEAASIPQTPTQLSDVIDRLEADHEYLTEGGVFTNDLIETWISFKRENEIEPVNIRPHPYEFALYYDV

MtGS = details: read-out: IC50 obtained in the HTS study; HTS assay conditions; cited from earlier work

| Compound | inhibitory activity in the MtGS enzymatic assay (in words) [1] | other results |
| --- | --- | --- |
| COc1ccc2cc(-c3nc(C)[nH]c3-c3ccncc3)ccc2c1 [Compound 7f] | inactive | – |
| COc1ccc2cc(-c3nc[nH]c3-c3ccncc3)ccc2c1 [Compound 7g] | inactive | – |
| COc1ccc2cc(-c3nc(C(C)(C)C)[nH]c3-c3ccnc(N)c3)ccc2c1 [Compound 11a, 4-(2-tert-Butyl-4-(6-methoxynaphthalen-2-yl)-1H-imidazol-5-yl)pyridin-2-amine] | – | fold increase of affinity/potency (IC50) compared to 7a [1]: over 60 fold |
| CNc1cc(-c2[nH]c(C(C)(C)C)nc2-c2ccc3cc(OC)ccc3c2)ccn1 [Compound 11b] | – | fold loss in activity compared to 11a [1]: 100 fold |
| COc1ccc2cc(-c3nc(C(C)(C)C)[nH]c3-c3ccnc(F)c3)ccc2c1 [Compound 10] | – | fold increase of affinity/potency (IC50) compared to 7a [1]: ~2.5 fold |
| COc1ccc2cc(-c3nc(C(C)(C)C)[nH]c3-c3ccnc(N(C)C)c3)ccc2c1 [Compound 11c] | inactive | – |
| COc1ccc2cc(-c3nc(CO)[nH]c3-c3ccncc3)ccc2c1 [Compound 7i] | inactive | – |
| COc1ccc2cc(-c3nc(C(C)(C)C)[nH]c3-c3ccncc3)ccc2c1 [Compound 7a] | – | IC50 (MtGS): 100 nM; fold higher IC50 than the IC50 obtained in the HTS study [1]: 30 fold |
| COc1ccc2cc(-c3nc(COCc4ccccc4)[nH]c3-c3ccncc3)ccc2c1 [Compound 7h] | did not show any inhibitory activity | – |
